Read-outs that look alike come from different tables or passages of the source.
How the values were obtained:
AOX [1] = tested on: AOX
rat hepatocytes = conditions: read-out: IC50 (toxic to hepatocytes); cited from earlier work
AOX1 [2] = conditions: rat livers, 20, 50, 100 mg·kg−1·d−1 NIM for 5 days, dose-dependent
OATPs = conditions: cited from earlier work
AOX [3] = assay: AOX activity in rat hepatocytes, 7-OH MTX formation from probe substrate MTX; format: cell-based; conditions: for increase in 7-OH MTX yield vs control: then MTX 50 μM
AOX3 [4] = conditions: rat hepatocytes, 0–20 μM NIM for 24 h, concentration-dependent
AOX3 mRNA [5] = conditions: rat hepatocytes, 0–20 μM NIM for 24 h
AOX [6] = conditions: NIM 5–20 μM directly added to the RLC incubation of MTX
[7] = tested on: sandwich-cultured rat hepatocytes; conditions: concentration-dependent
MRP2 = conditions: cited from earlier work
AOX [8] = format: cell-based, human; conditions: for increase in 7-OH MTX yields vs control: human hepatocytes
human hepatocytes = conditions: read-out: IC50 (toxic to hepatocytes); cited from earlier work
AOX1 mRNA = conditions: rat hepatocytes, 0–20 μM NIM for 24 h
AOX3 [9] = conditions: rat livers, 20, 50, 100 mg·kg−1·d−1 NIM for 5 days, dose-dependent
AOX1 [10] = conditions: rat hepatocytes, 0–20 μM NIM for 24 h, concentration-dependent
AOX3 mRNA [11] = conditions: rat livers, 20, 50, 100 mg·kg−1·d−1 NIM for 5 days
[12] = patients, high dose (>50 mg MTX/kg) therapy regimens; cited from earlier work
[13] = NIM-treated rats, 100 mg·kg−1·d−1, 5 days, vs nontreated rats

With `CS(=O)(=O)Nc1ccc([N+](=O)[O-])cc1Oc1ccccc1` [NIM, nimesulide] the “increase in AOX-mediated metabolite from JNJ-38877605 in liver cytosol” value (AOX [1]; [13]) was 3.8 fold, the “increase in AOX-mediated metabolite from SGX523 in liver cytosol” value (AOX [1]; [13]) was 3.4 fold and the “increase in AOX-mediated metabolite from phthalazine in liver cytosol” value (AOX [1]; [13]) was 2.5 fold. For the same compound, the “increase in 7-OH MTX formation in liver cytosol vs vehicle” value (from here on “increase … vs vehicle”) (AOX [1]; rats pretreated with 20 mg·kg−1·d−1 NIM for 5 days) was 1.9 fold, the “increase … vs vehicle” value (AOX [1]; rats pretreated with 50 mg·kg−1·d−1 NIM for 5 days) was 3.2 fold and the “increase … vs vehicle” value (AOX [1]; rats pretreated with 100 mg·kg−1·d−1 NIM for 1 day) was 1.0 fold. The “increase … vs vehicle” value (AOX [1]; rats pretreated with 100 mg·kg−1·d−1 NIM for 3 days) was 2.0 fold, the “increase … vs vehicle” value (AOX [1]; rats pretreated with 100 mg·kg−1·d−1 NIM for 5 days (dose experiment)) was 3.7 fold and the “increase … vs vehicle” value (AOX [1]; rats pretreated with 100 mg·kg−1·d−1 NIM for 5 days (time experiment)) was 3.8 fold. For the same compound, the “increase in accumulated excretion of 7-OH MTX in 0–24 h feces” value (male, Wistar, rat, feces, oral) was 2.1 fold, the “increase in accumulated excretion of 7-OH MTX in 0–24 h urine” value (male, Wistar, rat, urine, oral) was 5.2 fold and the “increase in accumulated excretion of MTX in 0–24 h urine” value (male, Wistar, rat, urine, oral) was 1.8 fold. For the same compound, the “accumulated excretion of MTX in 0–24 h feces” value (rats, 100 mg·kg−1·d−1 NIM for 5 days, then oral MTX 50 mg/kg) was “no significant change”, the IC50 (rat hepatocytes) was 40 µM and the AOX1 protein level (AOX1 [2]) was “increased”. The “inhibition of OATPs” value (OATPs) was “inhibitor”, the “increase in 7-OH MTX yields vs control” value (AOX [3]; 5 μM NIM for 24 h) was 1.3 fold and the “increase in 7-OH MTX yields vs control” value (AOX [3]; 10 μM NIM for 24 h) was 1.8 fold. The “increase in 7-OH MTX yield vs control” value (AOX [3]; 20 μM NIM for 12 h) was 1.7 fold, the “increase in 7-OH MTX yields vs control” value (AOX [3]; 20 μM NIM for 24 h (concentration experiment)) was 3.1 fold and the “increase in 7-OH MTX yield vs control” value (AOX [3]; 20 μM NIM for 24 h (induction time experiment)) was 2.5 fold. The “increase in 7-OH MTX yield vs control” value (AOX [3]; 20 μM NIM for 48 h) was 2.7 fold, the “increase in 7-OH MTX yield vs control” value (AOX [3]; 20 μM NIM for 72 h) was 2.7 fold and the AOX3 protein level (AOX3 [4]) was “decreased”. The “AOX3 mRNA level” value (AOX3 mRNA [5]) was “did not alter”, the “7-OH MTX formation vs incubation containing no NIM” value (AOX [6]) was “no significant difference” and the “cellular plus biliary accumulation of MTX” value [7] was “reduced”. The “inhibition of MRP2” value (MRP2) was “inhibitor”, the “increase in 7-OH MTX yields vs control” value (AOX [8]; 10 μM NIM for 24 h) was 1.3 fold and the “increase in 7-OH MTX yields vs control” value (AOX [8]; 50 μM NIM for 24 h) was 1.7 fold. The “increase in 7-OH MTX yields vs control” value (AOX [8]; 100 μM NIM for 24 h) was 2.0 fold, the “increase in 7-OH MTX formation” value (AOX [8]; primary human hepatocytes, NIM (20 μM) for 24 h) was 2.0 fold and the IC50 (human hepatocytes) was 213 µM. For the same compound, the “AOX1 mRNA level” value (AOX1 mRNA) was “did not alter”, the AOX3 protein level (AOX3 [9]) was “decreased” and the AOX1 protein level (AOX1 [10]) was “increased”. The “AOX3 mRNA level” value (AOX3 mRNA [11]) was “no significant alteration”.
For `CN(Cc1cnc2nc(N)nc(N)c2n1)c1ccc(C(=O)N[C@@H](CCC(=O)O)C(=O)O)cc1` [MTX, methotrexate], the “MTX excreted as 7-OH MTX” value [12] is listed as at most 33%.
